Type in all cases: functional
In one assay the test system is Escherichia coli. The assay can be described thus: Antibacterial activity against Escherichia coli MTCC 443 by broth dilution method. In general terms: In broth dilution the organism is exposed to a series of concentrations in liquid medium.
In assay [1] the test system is Mycobacterium tuberculosis. As to the kind of experiment: Antibacterial activity against Mycobacterium tuberculosis H37Rv by nitrate reductase assay.
A further assay relates to Staphylococcus aureus. The assay can be described thus: Antibacterial activity against Staphylococcus aureus MTCC 96 by broth dilution method.
For a further assay, the system named is Bacillus subtilis. The assay can be described thus: Antibacterial activity against Bacillus subtilis MTCC 441 by broth dilution method.
For a further assay, the system named is Pseudomonas aeruginosa. As to the kind of experiment: Antibacterial activity against Pseudomonas aeruginosa MTCC 1688 by broth dilution method.

≈ marks a conversion by molar mass, not a printed value. Some results are limits rather than exact numbers.

As for `O=[N+]([O-])c1ccc(/C=N\NC2=NS(=O)(=O)c3ccccc3N2c2ccccc2)s1`, the MIC with Escherichia coli came to 18.8 µg/mL (≈ 43.9 µM); in assay [1], 4 µg/mL (≈ 9.36 µM); in the assay on Staphylococcus aureus, 37.5 µg/mL (≈ 87.7 µM); against Bacillus subtilis it was 37.5 µg/mL (≈ 87.7 µM); in the assay with Pseudomonas aeruginosa, 150 µg/mL (≈ 351 µM).
For the compound `CN1C(NNC(=O)c2ccc([N+](=O)[O-])o2)=NS(=O)(=O)c2ccccc21`, the MIC in the assay with Escherichia coli is 18.8 µg/mL (≈ 51.3 µM); in assay [1] it was 32 µg/mL (≈ 87.6 µM); against Staphylococcus aureus it was 37.5 µg/mL (≈ 103 µM); in the assay on Bacillus subtilis, 18.8 µg/mL (≈ 51.3 µM); against Pseudomonas aeruginosa, 150 µg/mL (≈ 411 µM).
Regarding `CCN1C(NNC(=O)c2ccc([N+](=O)[O-])o2)=NS(=O)(=O)c2ccccc21`, the MIC came to 18.8 µg/mL (≈ 49.4 µM) against Escherichia coli; 32 µg/mL (≈ 84.4 µM) in assay [1]; 150 µg/mL (≈ 395 µM) with Staphylococcus aureus; 18.8 µg/mL (≈ 49.4 µM) against Bacillus subtilis; 150 µg/mL (≈ 395 µM) in the assay with Pseudomonas aeruginosa.
Take `CCN1C(NNC(=O)c2ccc(-c3ccccc3[N+](=O)[O-])o2)=NS(=O)(=O)c2ccccc21`: the MIC against Escherichia coli was 18.8 µg/mL (≈ 41.2 µM); in assay [1], more than 100 µg/mL; against Staphylococcus aureus it was 9.37 µg/mL (≈ 20.6 µM); against Bacillus subtilis, 18.8 µg/mL (≈ 41.2 µM); against Pseudomonas aeruginosa it was 150 µg/mL (≈ 329 µM).
Turning to `O=C(NNC1=NS(=O)(=O)c2ccccc2N1c1ccccc1)c1ccc(-c2ccccc2[N+](=O)[O-])o1`, the MIC in the assay on Escherichia coli is 75 µg/mL (≈ 149 µM); in assay [1], more than 100 µg/mL; with Staphylococcus aureus, 18.8 µg/mL (≈ 37.2 µM); with Bacillus subtilis it was 37.5 µg/mL (≈ 74.5 µM); against Pseudomonas aeruginosa it was 150 µg/mL (≈ 298 µM).
The like results for `CN1C(NNC(=O)c2ccc(-c3ccccc3[N+](=O)[O-])o2)=NS(=O)(=O)c2cc(Cl)ccc21` were, in that order, 18.8 µg/mL (≈ 39.4 µM), more than 100 µg/mL, 75 µg/mL (≈ 158 µM), 37.5 µg/mL (≈ 78.8 µM) and 150 µg/mL (≈ 315 µM).
With `CN1C(NNC(=O)c2ccc(-c3cccc([N+](=O)[O-])c3)o2)=NS(=O)(=O)c2ccccc21`, the MIC is 18.8 µg/mL (≈ 42.5 µM) against Escherichia coli; more than 100 µg/mL in assay [1]; 18.8 µg/mL (≈ 42.5 µM) against Staphylococcus aureus; 37.5 µg/mL (≈ 85 µM) in the assay with Bacillus subtilis; 75 µg/mL (≈ 170 µM) against Pseudomonas aeruginosa.
Take `O=C(NNC1=NS(=O)(=O)c2ccccc2N1c1ccccc1)c1ccc(-c2cccc([N+](=O)[O-])c2)o1`: the MIC against Escherichia coli is 18.8 µg/mL (≈ 37.2 µM); in assay [1], more than 100 µg/mL; against Staphylococcus aureus it was 18.8 µg/mL (≈ 37.2 µM); against Bacillus subtilis, 37.5 µg/mL (≈ 74.5 µM); against Pseudomonas aeruginosa, 150 µg/mL (≈ 298 µM).
Regarding `CCN1C(N/N=C\c2ccc([N+](=O)[O-])s2)=NS(=O)(=O)c2ccccc21`, the MIC in the assay with Escherichia coli was determined as 18.8 µg/mL (≈ 49.4 µM); in assay [1], 16 µg/mL (≈ 42.2 µM); against Staphylococcus aureus, 18.8 µg/mL (≈ 49.4 µM); with Bacillus subtilis, 18.8 µg/mL (≈ 49.4 µM); in the assay on Pseudomonas aeruginosa, 150 µg/mL (≈ 395 µM).
For `CC(C)N1C(N/N=C\c2ccc([N+](=O)[O-])s2)=NS(=O)(=O)c2ccccc21`, the MIC against Escherichia coli was determined as 18.8 µg/mL (≈ 47.7 µM); in assay [1], 4 µg/mL (≈ 10.2 µM); against Staphylococcus aureus, 18.8 µg/mL (≈ 47.7 µM); against Bacillus subtilis, 18.8 µg/mL (≈ 47.7 µM); against Pseudomonas aeruginosa, 150 µg/mL (≈ 381 µM).
As for `CN1C(N/N=C\c2ccc([N+](=O)[O-])o2)=NS(=O)(=O)c2ccccc21`, the MIC with Escherichia coli turned out to be 18.8 µg/mL (≈ 53.7 µM); in assay [1] it was 8 µg/mL (≈ 22.9 µM); in the assay with Staphylococcus aureus, 37.5 µg/mL (≈ 107 µM); in the assay on Bacillus subtilis, 37.5 µg/mL (≈ 107 µM); in the assay with Pseudomonas aeruginosa, 150 µg/mL (≈ 429 µM).
`CN1C(NNC(=O)c2ccc(-c3ccccc3[N+](=O)[O-])o2)=NS(=O)(=O)c2ccccc21`: the MIC in the assay on Escherichia coli is 37.5 µg/mL (≈ 85 µM); in assay [1], more than 100 µg/mL; in the assay on Staphylococcus aureus, 18.8 µg/mL (≈ 42.5 µM); in the assay on Bacillus subtilis, 37.5 µg/mL (≈ 85 µM); with Pseudomonas aeruginosa, 75 µg/mL (≈ 170 µM).
Regarding `CCN1C(N/N=C\c2ccc([N+](=O)[O-])o2)=NS(=O)(=O)c2ccccc21`, the MIC against Escherichia coli was found to be 18.8 µg/mL (≈ 51.6 µM); in assay [1], 8 µg/mL (≈ 22 µM); in the assay with Staphylococcus aureus it was 37.5 µg/mL (≈ 103 µM); in the assay on Bacillus subtilis it was 9.37 µg/mL (≈ 25.8 µM); in the assay on Pseudomonas aeruginosa, 150 µg/mL (≈ 413 µM).
The like results for `O=C(NNC1=NS(=O)(=O)c2ccccc2N1c1ccccc1)c1ccc([N+](=O)[O-])o1` were, in that order, 18.8 µg/mL (≈ 43.9 µM), 8 µg/mL (≈ 18.7 µM), 37.5 µg/mL (≈ 87.7 µM), 75 µg/mL (≈ 175 µM) and 150 µg/mL (≈ 351 µM).
As for `CN1C(NNC(=O)c2ccc([N+](=O)[O-])o2)=NS(=O)(=O)c2cc(Cl)ccc21`, the MIC against Escherichia coli came out at 18.8 µg/mL (≈ 46.9 µM); in assay [1] it was 4 µg/mL (≈ 10 µM); in the assay with Staphylococcus aureus, 37.5 µg/mL (≈ 93.8 µM); in the assay with Bacillus subtilis, 18.8 µg/mL (≈ 46.9 µM); against Pseudomonas aeruginosa it was 150 µg/mL (≈ 375 µM).
`O=[N+]([O-])c1ccc(/C=N\NC2=NS(=O)(=O)c3ccccc3N2c2ccccc2)o1`: the MIC was 37.5 µg/mL (≈ 91.2 µM) against Escherichia coli; 1 µg/mL (≈ 2.43 µM) in assay [1]; 75 µg/mL (≈ 182 µM) with Staphylococcus aureus; 37.5 µg/mL (≈ 91.2 µM) with Bacillus subtilis; 150 µg/mL (≈ 365 µM) with Pseudomonas aeruginosa.
`CCN1C(NNC(=O)c2ccc(-c3cccc([N+](=O)[O-])c3)o2)=NS(=O)(=O)c2ccccc21`: the MIC was 75 µg/mL (≈ 165 µM) in the assay with Escherichia coli; more than 100 µg/mL in assay [1]; 75 µg/mL (≈ 165 µM) in the assay on Staphylococcus aureus; 37.5 µg/mL (≈ 82.3 µM) in the assay with Bacillus subtilis; 150 µg/mL (≈ 329 µM) with Pseudomonas aeruginosa.
Consider `CN1C(N/N=C\c2ccc([N+](=O)[O-])s2)=NS(=O)(=O)c2ccccc21`, for which the minimum inhibitory concentration (MIC) against Escherichia coli stood at 37.5 µg/mL (≈ 103 µM); in assay [1], 8 µg/mL (≈ 21.9 µM); in the assay on Staphylococcus aureus, 37.5 µg/mL (≈ 103 µM); with Bacillus subtilis it was 18.8 µg/mL (≈ 51.3 µM); against Pseudomonas aeruginosa, 150 µg/mL (≈ 411 µM).
In assay [1], `NNC(=O)c1ccncc1` [ISONIAZID] had an MIC of 0.5 µg/mL (≈ 3.65 µM).
`O=C1CN(/N=C/c2ccc([N+](=O)[O-])o2)C(=O)N1` [NITROFURANTOIN]: the MIC with Escherichia coli was found to be 18.8 µg/mL (≈ 78.7 µM); with Staphylococcus aureus it was 18.8 µg/mL (≈ 78.7 µM); against Bacillus subtilis, 18.8 µg/mL (≈ 78.7 µM); in the assay with Pseudomonas aeruginosa, 150 µg/mL (≈ 630 µM).
In the case of `CO[C@H]1/C=C/O[C@@]2(C)Oc3c(C)c(O)c4c(O)c(c(/C=N/N5CCN(C)CC5)c(O)c4c3C2=O)NC(=O)/C(C)=C\C=C\[C@H](C)[C@H](O)[C@@H](C)[C@@H](O)[C@@H](C)[C@H](OC(C)=O)[C@@H]1C` [RIFAMPIN], in assay [1], the lowest concentration to inhibit growth (MIC) was 0.12 µg/mL (≈ 0.146 µM).

As a reminder, the MIC is the smallest concentration in the dilution series that meets the test's criterion for growth inhibition. Low values mean a more susceptible organism, high ones a less susceptible organism.
